Laboratory results as given in patent publication US20150315188A1, “COMPOUNDS AND METHODS FOR TREATMENT OF HYPERTENSION” (MEDIVATION TECHNOLOGIES, INC., priority 2012, published 2015).
Several values for one entry are separate records, joined by “and”; a condition that tells them apart may be missing. Identical values can stand only once.

Assays:
Set-up in all cases: purchased Milipore (Millipore)
[1] = target: T1, Human adrenergic α1B receptor (Homo sapiens, UniProt P35368); assay: Radioligand binding, adrenergic α1B (Protocol Group B); conditions: Protocol Group B; for Percentage inhibition of ligand binding, Adrenergic α1B (0.1 μM) / inhibition at 0.1 µM: 0.1 μM compound; for Percentage inhibition of ligand binding, Adrenergic α1B (0.3 μM) / inhibition at 0.3 µM: 0.3 μM compound; for inhibition at 0.1 µM: read-out: Percentage inhibition of ligand binding, Adrenergic α1B (0.1 μM); for inhibition at 0.3 µM: read-out: Percentage inhibition of ligand binding, Adrenergic α1B (0.3 μM)
T1 sequence (P35368 1-520): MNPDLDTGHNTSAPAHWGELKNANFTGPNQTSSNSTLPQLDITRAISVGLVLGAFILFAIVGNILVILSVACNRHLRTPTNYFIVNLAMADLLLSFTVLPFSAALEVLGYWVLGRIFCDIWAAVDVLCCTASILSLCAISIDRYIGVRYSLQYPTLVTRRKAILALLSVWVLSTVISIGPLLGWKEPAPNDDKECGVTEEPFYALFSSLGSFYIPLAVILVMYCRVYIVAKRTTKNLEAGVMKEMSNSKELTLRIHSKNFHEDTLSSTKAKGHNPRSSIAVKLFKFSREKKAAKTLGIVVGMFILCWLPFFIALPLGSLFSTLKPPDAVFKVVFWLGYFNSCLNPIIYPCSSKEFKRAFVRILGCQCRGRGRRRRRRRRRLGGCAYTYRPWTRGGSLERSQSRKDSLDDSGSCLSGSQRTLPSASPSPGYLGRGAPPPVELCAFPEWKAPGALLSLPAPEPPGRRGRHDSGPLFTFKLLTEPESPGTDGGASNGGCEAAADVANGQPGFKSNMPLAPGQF
Method in brief: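 Values are percent inhibition of specific [3H]prazosin (0.3 nM) binding or estimated Ki, from filtration counting. Human α1B recombinant membranes, Tris-HCl pH 7.4 buffer with MgCl2 and EDTA, 60 min at 25 °C, 1% DMSO vehicle; 10 μM prazosin defined nonspecific binding.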

[2] = target: T2, Human adrenergic α2B receptor (Homo sapiens, UniProt P18089); assay: Radioligand binding, adrenergic α2B (Protocol Group B); conditions: Protocol Group B; for Percentage inhibition of ligand binding, Adrenergic α2B (10 nM) / inhibition at 0.01 µM: 10 nM compound; for Percentage inhibition of ligand binding, Adrenergic α2B (10 nM): 0.01 µM; for Percentage inhibition of ligand binding, Adrenergic α2B (30 nM) / inhibition at 0.03 µM: 30 nM compound; for Percentage inhibition of ligand binding, Adrenergic α2B (30 nM): 0.03 µM; for inhibition at 0.01 µM: read-out: Percentage inhibition of ligand binding, Adrenergic α2B (10 nM); for inhibition at 0.03 µM: read-out: Percentage inhibition of ligand binding, Adrenergic α2B (30 nM)
T2 sequence (P18089 1-450): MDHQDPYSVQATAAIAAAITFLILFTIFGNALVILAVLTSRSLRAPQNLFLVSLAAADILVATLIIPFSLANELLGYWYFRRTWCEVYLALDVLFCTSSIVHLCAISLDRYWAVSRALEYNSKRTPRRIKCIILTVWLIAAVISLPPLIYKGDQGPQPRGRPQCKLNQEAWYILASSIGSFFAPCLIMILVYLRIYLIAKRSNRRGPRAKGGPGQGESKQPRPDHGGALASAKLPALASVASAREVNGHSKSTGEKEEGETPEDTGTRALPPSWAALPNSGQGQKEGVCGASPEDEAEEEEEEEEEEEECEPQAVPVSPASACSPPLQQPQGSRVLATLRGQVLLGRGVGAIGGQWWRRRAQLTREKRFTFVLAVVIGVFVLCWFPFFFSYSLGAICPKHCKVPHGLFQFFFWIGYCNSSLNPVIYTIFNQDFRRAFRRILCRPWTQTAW
Method in brief: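 Compounds at various concentrations in 1% DMSO were tested on recombinant membranes in Tris-HCl pH 7.4 buffer containing MgCl2, CaCl2 and 0.2% BSA.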

[3] = target: T3, Human adrenergic α2A receptor (Homo sapiens, UniProt P08913); assay: Radioligand binding, adrenergic α2A (Protocol Group B); conditions: Protocol Group B; for Percentage inhibition of ligand binding, Adrenergic α2A (0.1 μM) / inhibition at 0.1 µM: 0.1 μM compound; for Percentage inhibition of ligand binding, Adrenergic α2A (0.3 μM) / inhibition at 0.3 µM: 0.3 μM compound; for inhibition at 0.1 µM: read-out: Percentage inhibition of ligand binding, Adrenergic α2A (0.1 μM); for inhibition at 0.3 µM: read-out: Percentage inhibition of ligand binding, Adrenergic α2A (0.3 μM)
T3 sequence (P08913 1-465): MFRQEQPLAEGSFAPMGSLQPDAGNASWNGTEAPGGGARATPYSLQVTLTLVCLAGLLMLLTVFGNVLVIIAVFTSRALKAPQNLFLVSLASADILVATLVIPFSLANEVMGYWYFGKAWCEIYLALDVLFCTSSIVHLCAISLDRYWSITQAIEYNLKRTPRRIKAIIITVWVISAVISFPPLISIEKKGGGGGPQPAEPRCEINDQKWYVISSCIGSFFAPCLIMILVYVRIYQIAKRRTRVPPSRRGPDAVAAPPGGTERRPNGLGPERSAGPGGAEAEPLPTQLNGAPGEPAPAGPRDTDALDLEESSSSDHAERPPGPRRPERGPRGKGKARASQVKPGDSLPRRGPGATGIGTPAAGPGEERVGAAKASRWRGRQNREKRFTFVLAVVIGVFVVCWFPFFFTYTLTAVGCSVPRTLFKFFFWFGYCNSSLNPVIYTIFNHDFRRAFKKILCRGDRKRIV
Method in brief: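 Compounds (1% DMSO vehicle, various concentrations) competed against 2 nM [^3H]MK-912 on recombinant receptor membranes for 60 min at 25° C, Tris-HCl pH 7.4 buffer with Mg2+, Ca2+, BSA. Bound radioligand filtered and counted; 10 μM rauwolscine set nonspecific binding. Values: percent inhibition of specific binding or estimated Ki.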

Row | Percentage inhibition of ligand binding, Adrenergic α1B (0.1 μM) [1] [%] | Percentage inhibition of ligand binding, Adrenergic α1B (0.3 μM) [1] [%] | Percentage inhibition of ligand binding, Adrenergic α2B (10 nM) [2] [%] | Percentage inhibition of ligand binding, Adrenergic α2B (30 nM) [2] | Percentage inhibition of ligand binding, Adrenergic α2B (0.1 μM) ([2]; 0.1 μM compound) [%] | Percentage inhibition of ligand binding, Adrenergic α2A (0.1 μM) [3] [%] | Percentage inhibition of ligand binding, Adrenergic α2A (0.3 μM) ([3]; 0.3 µM) [%] | inhibition at 0.1 µM [1] [%] | inhibition at 0.3 µM [1] [%] | inhibition at 0.01 µM [2] [%] | inhibition at 0.03 µM [2] [%] | inhibition at 0.1 µM ([2]; 0.1 μM compound, read-out: Percentage inhibition of ligand binding, Adrenergic α2B (0.1 μM)) [%] | inhibition at 0.1 µM [3] [%] | inhibition at 0.3 µM [3] [%] | Percentage inhibition of ligand binding, Adrenergic α2A (0.3 μM) [3] [%] | SMILES
1 | – | – | – | – | – | – | – | -5 | 8 | 15 | 43 | 66 | -8 | -3 | – | Cc1ccc2c(c1)c1c(n2CC(O)c2ccc(C(=O)N(C)C)nc2)CCN(C)C1 (centres unmarked) [compound 54, 5-(2-(2,8-dimethyl-3,4-dihydro-1H-pyrido[4,3-b]indol-5(2H)-yl)-1-hydroxyethyl)-N,N-dimethylpicolinamide]
2 | 4 | 3 | 11 | 5% | 20 | 5 | 0 | – | – | – | – | – | – | – | – | Cc1cc(F)cc2c3c(n(CC(C)(O)c4cccnc4)c12)CC1CCCN1C3 (single isomer, unassigned) [76b]
3 | – | – | – | – | – | – | – | 55 | – | – | 93 | – | 85 | – | – | Cc1cc(C)c2c(c1)c1c(n2CC(O)C2CCCCC2)CCN2CCCC12 (centres unmarked) [141a]
4 | −8 | 11 | 12 | 21% | 53 | −3 | 12 | – | – | – | – | – | – | – | – | Cc1cc(F)cc2c3c(n(CC(C)(O)c4cccnc4)c12)CC1CCCN1C3 (single isomer, unassigned) [76a]
5 | 46 | – | – | – | – | 52 | – | – | – | – | 92 | – | – | – | – | Cc1cc(Cl)c2c(c1)c1c(n2CC(O)c2ccncc2)CCN2CCCC12 (single isomer, unassigned) [142a]
6 | 3 | 15 | 14 | 17% | – | 11 | 14 | – | – | – | – | – | – | – | – | CC(O)(Cn1c2c(c3cc(Cl)cc(F)c31)CN1CCCC1C2)c1ccncc1 (single isomer, unassigned) [86b]
7 | – | – | – | 10% | – | – | 2 | 12 | 14 | 14 | – | – | 10 | – | – | Cc1cc(F)c2c(c1)c1c(n2CC(O)c2ccncc2)CCN2CCCC12 (single isomer, unassigned) [137c]

The next lines start with the compound.

Row | SMILES | Percentage inhibition of ligand binding, Adrenergic α1B (0.1 μM) [1] [%] | Percentage inhibition of ligand binding, Adrenergic α1B (0.3 μM) [1] [%] | Percentage inhibition of ligand binding, Adrenergic α2B (10 nM) [2] [%] | Percentage inhibition of ligand binding, Adrenergic α2B (30 nM) [2] | Percentage inhibition of ligand binding, Adrenergic α2B (0.1 μM) ([2]; 0.1 μM compound) [%] | Percentage inhibition of ligand binding, Adrenergic α2A (0.1 μM) [3] [%] | Percentage inhibition of ligand binding, Adrenergic α2A (0.3 μM) ([3]; 0.3 µM) [%] | inhibition at 0.1 µM [1] [%] | inhibition at 0.3 µM [1] [%] | inhibition at 0.01 µM [2] [%] | inhibition at 0.03 µM [2] [%] | inhibition at 0.1 µM ([2]; 0.1 μM compound, read-out: Percentage inhibition of ligand binding, Adrenergic α2B (0.1 μM)) [%] | inhibition at 0.1 µM [3] [%] | inhibition at 0.3 µM [3] [%] | Percentage inhibition of ligand binding, Adrenergic α2A (0.3 μM) [3] [%]
8 | Cc1ccc2c(c1)c1c(n2CC(C)(O)c2cccnc2)CCN(C)C1CO (single isomer, unassigned) [16b] | −3 | 5 | 4 | −11% | 7 | −2 | 10 | – | – | – | – | – | – | – | –
9 | Cc1ccc2c(c1)c1c(n2CC(O)c2cccnc2)CC2CCCN2C1 (single isomer, unassigned) [27b] | 13 | 41 | 26 | 48% | 67 | 10 | – | – | – | – | – | – | – | – | 20
10 | CC(O)(Cn1c2c(c3cc(F)ccc31)C1CCCN1CC2)c1cccnc1 (centres unmarked) [51a] | −6 | 19 | 79 | 93% | 97 | 16 | 39 | – | – | – | – | – | – | – | –
11 | Cc1ccc2c(c1)c1c(n2CC(C)(O)c2cccnc2)CC2CCCN2C1 (centres unmarked) [41a] | −2 | −3 | 24 | 51% | 80 | −7 | 6 | – | – | – | – | – | – | – | –
12 | OC(Cn1c2c(c3cc(F)ccc31)C1CCCN1CC2)c1ccncc1 (single isomer, unassigned) [18d] | 15 | 24 | 11 | 32% and 36% | 79 | 8 | 20 | – | – | – | – | – | – | – | –
13 | Cc1cc(F)c2c(c1)c1c(n2CC(C)(O)c2ccncc2)CC2CCCN2C1 (single isomer, unassigned) [62c] | 10 | 15 | 47 | 52% | 65 | 5 | 21 | – | – | – | – | – | – | – | –
14 | Cc1ccc2c(c1)c1c(n2CC(O)c2ccncc2)CN(C)C2CCCC12 (single isomer, unassigned) [36a] | −2 | 12 | 8 | −5% | −3 | −16 | – | – | – | – | – | – | – | -5 | –
15 | Cc1cc(C)c2c(c1)c1c(n2CC(C)(O)c2ccncc2)CCN2CCCC12 (single isomer, unassigned) [19d] | −8 | −5 | −9 | −4% | −1 | −8 | −5 | – | – | – | – | – | – | – | –
